Assay results as given in ChEMBL document CHEMBL5728000, “GCN2 inhibitors and uses thereof” (2020).
pKi: −log10 of the molar value.

The molecules below were run against eIF-2-alpha kinase GCN2 (Homo sapiens, UniProt Q9P2K8) (assay: Enzyme Inhibition Assay: An assay buffer containing GCN2 kinase and (RS)7 was prepared. 4.7 μL of this stock solution was placed per well of a black, low volume, 384-well microtitre plate (e.g. catalogue number 3676, Corning Inc., NY). To this was added […] containing serial dilutions of the test compound (typical final concentrations of test compound were 0 to 8 μM). The plate was incubated for 10 minutes at 25° C. prior to the addition of 4.7 μL of ATP stock buffer to initiate the enzyme reaction. The reaction was allowed to proceed for 1 hour at 25° C., prior to the addition of 10 μL detection buffer (consisting of appropriate concentrations of ADP2 antibody and ADP Alexa633 tracer in 1× stop and detect buffer as supplied by BellBrook Labs). The reaction was left to incubate for 1 hour at 25° C., prior to measuring the fluorescence polarisation signal (mP) in each well using a PHERAstar FS reader (BMG Labtech, Germany).).
eIF-2-alpha kinase GCN2, sequence (Q9P2K8 whole entry): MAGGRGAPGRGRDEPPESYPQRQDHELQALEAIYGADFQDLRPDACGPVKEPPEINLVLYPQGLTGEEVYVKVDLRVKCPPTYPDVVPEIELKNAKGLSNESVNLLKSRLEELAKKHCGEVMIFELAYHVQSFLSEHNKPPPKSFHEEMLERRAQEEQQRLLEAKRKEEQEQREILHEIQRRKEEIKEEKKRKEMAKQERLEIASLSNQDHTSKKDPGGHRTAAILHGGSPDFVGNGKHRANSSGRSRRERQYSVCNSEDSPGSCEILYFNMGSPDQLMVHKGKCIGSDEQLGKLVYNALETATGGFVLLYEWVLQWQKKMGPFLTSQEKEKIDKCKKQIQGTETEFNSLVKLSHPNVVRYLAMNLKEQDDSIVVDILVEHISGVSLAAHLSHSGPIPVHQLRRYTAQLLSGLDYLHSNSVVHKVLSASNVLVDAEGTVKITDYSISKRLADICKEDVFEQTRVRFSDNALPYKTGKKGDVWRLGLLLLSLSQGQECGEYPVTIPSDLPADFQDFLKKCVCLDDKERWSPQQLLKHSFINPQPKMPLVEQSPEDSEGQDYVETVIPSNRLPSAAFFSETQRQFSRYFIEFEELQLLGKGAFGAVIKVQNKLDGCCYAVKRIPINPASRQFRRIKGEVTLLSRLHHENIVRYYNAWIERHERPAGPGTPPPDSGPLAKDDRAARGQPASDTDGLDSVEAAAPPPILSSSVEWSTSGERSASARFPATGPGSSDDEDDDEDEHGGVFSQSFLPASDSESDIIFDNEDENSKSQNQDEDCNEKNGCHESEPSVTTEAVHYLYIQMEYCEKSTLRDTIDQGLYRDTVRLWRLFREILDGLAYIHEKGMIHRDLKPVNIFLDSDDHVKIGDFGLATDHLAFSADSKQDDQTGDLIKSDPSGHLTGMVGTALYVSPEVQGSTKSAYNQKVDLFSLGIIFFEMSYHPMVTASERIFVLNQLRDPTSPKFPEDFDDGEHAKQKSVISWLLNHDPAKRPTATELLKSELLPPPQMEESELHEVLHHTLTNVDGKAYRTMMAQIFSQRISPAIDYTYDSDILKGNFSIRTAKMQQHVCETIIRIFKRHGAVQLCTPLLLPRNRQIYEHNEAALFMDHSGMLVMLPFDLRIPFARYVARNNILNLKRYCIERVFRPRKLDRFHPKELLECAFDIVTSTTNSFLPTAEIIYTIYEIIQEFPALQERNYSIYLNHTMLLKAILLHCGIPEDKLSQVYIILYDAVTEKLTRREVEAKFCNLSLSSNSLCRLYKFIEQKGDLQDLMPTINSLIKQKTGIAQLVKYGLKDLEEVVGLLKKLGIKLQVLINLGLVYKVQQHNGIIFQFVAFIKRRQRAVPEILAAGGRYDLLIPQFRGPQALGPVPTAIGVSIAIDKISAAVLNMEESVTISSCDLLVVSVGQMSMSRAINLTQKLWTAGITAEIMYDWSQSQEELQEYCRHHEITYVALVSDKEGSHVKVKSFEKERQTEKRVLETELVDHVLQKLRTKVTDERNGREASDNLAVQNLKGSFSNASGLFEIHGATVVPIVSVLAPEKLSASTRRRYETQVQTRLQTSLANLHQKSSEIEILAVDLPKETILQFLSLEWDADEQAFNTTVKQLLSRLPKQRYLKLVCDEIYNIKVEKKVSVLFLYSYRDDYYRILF

`Cc1n[nH]cc1[C@H]1CN(c2ccnc(-c3cnc4ccc(C(F)(F)F)cn34)n2)C[C@@H](C)O1` (relative stereo) was tested. Which pKi did it give?
The pKi was > 8.00.

How did the pKi turn out when `Cc1[nH]ncc1[C@@H]1CN(c2nccc(-c3cnc4ccc(C(F)(F)F)cn34)n2)C[C@H](C)O1` was run?
The pKi was > 8.00.

`C[C@@H]1CN(c2nccc(-c3cnc4ccc(C(F)(F)F)cn34)n2)C[C@H](c2cn[nH]c2)O1` (relative stereo) was tested. Which pKi did it give?
Its pKi is > 8.00.

How did the pKi turn out when `Cc1[nH]ncc1[C@H]1CN(c2nccc(-c3cnc4ccc(C(F)(F)F)cn34)n2)C[C@@H](C)O1` (relative stereo) was run?
The pKi was > 8.00.

How did the pKi turn out when `C[C@H]1C[C@@H](c2cn[nH]c2)CN(c2nccc(-c3cnc4ccc(C(F)(F)F)cn34)n2)C1` (mixture of isomers) was run?
The pKi was > 8.00.
